Read-outs that look alike come from different tables or passages of the source.
Target: T1, CYP51 (CaCYP51), lanosterol 14α-demethylase (Candida albicans, UniProt P10613)
T1 construct: gene ERG11; recombinant CaCYP51
Test: CYP51 reconstitution assay with CPR and NADPH, GC-MS of demethylated sterols
Format: biochemical

T1 sequence (P10613 whole entry): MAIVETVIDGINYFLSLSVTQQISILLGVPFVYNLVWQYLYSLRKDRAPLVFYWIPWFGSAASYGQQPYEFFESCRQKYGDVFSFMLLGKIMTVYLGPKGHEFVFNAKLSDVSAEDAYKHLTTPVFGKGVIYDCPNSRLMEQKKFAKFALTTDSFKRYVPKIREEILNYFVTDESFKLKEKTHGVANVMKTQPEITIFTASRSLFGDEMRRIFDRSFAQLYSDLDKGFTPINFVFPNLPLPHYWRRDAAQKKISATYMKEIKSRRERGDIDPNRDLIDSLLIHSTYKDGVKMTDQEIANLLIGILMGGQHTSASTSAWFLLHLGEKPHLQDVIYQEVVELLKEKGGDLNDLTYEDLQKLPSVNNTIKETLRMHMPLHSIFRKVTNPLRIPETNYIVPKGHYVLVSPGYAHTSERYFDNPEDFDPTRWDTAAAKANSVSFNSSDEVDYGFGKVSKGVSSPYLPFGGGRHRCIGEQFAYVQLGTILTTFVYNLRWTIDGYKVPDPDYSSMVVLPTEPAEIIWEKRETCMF

| Compound | IC50 [nM] | IC50 (read-out: IC50) [nM] |
| --- | --- | --- |
| OC(CN1CCC(Nc2ncc(F)cn2)CC1)(Cn1cncn1)c1ccc(F)cc1F (racemic) [compound 7, 2-(2,4-Difluorophenyl)-1-(4-((5-fluoropyrimidin-2-Yl)-amino)-piperidin-1-Yl)-3-(1h-1,2,4-triazol-1-Yl)-propan-2-Ol] | ~400 | – |
| OC(Cn1cncn1)(Cn1cncn1)c1ccc(F)cc1F [fluconazole] | – | ~600 |

— article PMC12257509, “New Generation Modified Azole Antifungals against Multidrug-Resistant” (Journal of Medicinal Chemistry, 2025)
